Earlier results in publication PMC6311893, “Computational prediction of plasma protein binding of cyclic peptides from small molecule experimental data using sparse modeling techniques” (BMC Bioinformatics, 2018).

tested on: plasma protein; details: fraction bound to plasma protein; small molecule dataset, sheet 1-SM (Set Dte = test, Dtr = training); ref Ingle et al.; cited from earlier work

Row | Compound | PPB (fb)
1 | CC12CCC3c4ccc(O)cc4CCC3C1CCC2O (stereo not drawn) [17-a-estradiol] | 0.98
2 | CN(C)C/C=C(/c1ccc(Br)cc1)c1cccnc1 [zimeldine] | 0.9
3 | CCN[C@@H]1C[C@H](N)[C@@H](O[C@H]2OC(CN)=CC[C@H]2N)[C@H](O)[C@H]1O[C@H]1OC[C@](C)(O)[C@H](NC)[C@H]1O [Netilmicin] | 0.05
4 | O=C(O)CCNC(=O)c1ccc(/N=N/c2ccc(O)c(C(=O)O)c2)cc1 [balsalazide] | 0.99
5 | CC(=O)OCC(=O)[C@@]1(O)CC[C@H]2[C@@H]3CCC4=CC(=O)CC[C@]4(C)[C@H]3C(=O)C[C@@]21C [cortisone acetate] | 0.95
6 | CCOC(=O)[C@H](CCc1ccccc1)N[C@H]1CCc2ccccc2N(CC(=O)O)C1=O [benazepril] | 0.96
7 | CC1(C)S[C@@H]2[C@H](NC(=O)C(c3ccccc3)S(=O)(=O)O)C(=O)N2[C@H]1C(=O)O (stereo partly drawn) [Sulbenicillin] | 0.5
8 | Cc1ncc2c(c1O)COC2c1ccc(Cl)cc1 (stereo not drawn) [cicletanine] | 0.93
9 | CCCC(=O)N1CCCN(c2nc(N)c3cc(OC)c(OC)cc3n2)CC1 [Bunazosin] | 0.95
10 | C=CCOc1ccc(CC(=O)O)cc1Cl [alclofenac] | 0.99
11 | CCN1CCCC1CNC(=O)c1cc(S(N)(=O)=O)ccc1OC (stereo not drawn) [sulpiride] | 0.25
12 | O=C(O)CN1C(=O)[C@@H](N[C@@H](CCc2ccccc2)C(=O)O)CCc2ccccc21 [Benazeprilat] | 0.95
13 | O=C(O)c1cn(-c2ccc(F)cc2)c2cc(N3CCNCC3)c(F)cc2c1=O [2c(p-F)] | 0.31
14 | CC(=O)Nc1ccccc1 [acetanilide] | 0.07
15 | NS(=O)(=O)c1cc2c(cc1C(F)(F)F)NC(Cc1ccccc1)NS2(=O)=O (stereo not drawn) [bendrofluazide] | 0.94
16 | Cn1cnc([N+](=O)[O-])c1Sc1ncnc2nc[nH]c12 [azathioprine] | 0.25
17 | CN1C(C(=O)Nc2ccccn2)=C(O)c2sccc2S1(=O)=O [Tenoxicam] | 0.99

same assay, conditions: fraction bound to plasma protein; small molecule dataset, sheet 1-SM, Set Dtr; ref Ingle et al.; cited from earlier work

Row | Compound | PPB (fb)
18 | C#C[C@]1(O)CC[C@H]2[C@@H]3CCC4=CC(=O)CC[C@@H]4[C@H]3CC[C@@]21CC [Levonorgestrel] | 0.975
19 | N=C(N)NC(=O)c1cnn(-c2cccc3ncccc23)c1C1CC1 [zoniporide] | 0.5
20 | CCC1CN2CCC1CC2[C@@H](O)c1ccnc2ccc(OC)cc12 (stereo partly drawn) [Dihydroquinidine] | 0.78
21 | CO/N=C(\C(=O)N[C@@H]1C(=O)N2C(C(=O)O)=C(C)CS[C@H]12)c1csc(N)n1 [Cefetamet] | 0.22
22 | O=C(O)CCNC(=O)c1ccccc1 [Betamipron] | 0.83
23 | NS(=O)(=O)c1cc(C(=O)O)cc(N2CCCC2)c1Oc1ccccc1 [Piretanide] | 0.94
24 | Cc1ccc(S(=O)(=O)NC(=O)NN2CCCCCC2)cc1 [tolazamide] | 0.97
25 | CN(C)CCCN1c2ccccc2Sc2ccc(Cl)cc21 [Chlorpromazine] | 0.96
26 | CN1[C@@H]2CC[C@H]1C[C@@H](OC(=O)c1c[nH]c3ccccc13)C2 [tropisetron] | 0.7
27 | Nc1nc(/C(=N/O)C(=O)N[C@@H]2C(=O)N3C(C(=O)O)=C(/C=C4\CCN([C@@H]5CCNC5)C4=O)CS[C@H]23)ns1 [Ceftobiprole] | 0.38
28 | Cn1nnnc1SCC1=C(C(=O)O)N2C(=O)[C@@H](NC(=O)[C@H](O)c3ccccc3)[C@H]2SC1 [Cefamandole] | 0.74

same assay, conditions: fraction bound to plasma protein; small molecule dataset, sheet 1-SM; ref Ingle et al.; cited from earlier work

Row | Compound | PPB (fb)
29 | CC(C(=O)O)c1ccc(-c2ccccc2)c(F)c1 (stereo not drawn) [flurbiprofen] | 0.99
30 | COCCOc1cnc(NS(=O)(=O)c2ccccc2)nc1 [glymidine] | 0.8
31 | O=C1CCC(N2C(=O)c3ccccc3C2=O)C(=O)N1 (stereo not drawn) [Thalidomide] | 0.57
32 | CCC(=O)O[C@@H](O[P@](=O)(CCCCc1ccccc1)CC(=O)N1C[C@H](C2CCCCC2)C[C@H]1C(=O)O)C(C)C [fosinopril] | 0.95
33 | NC(=O)OCC(COC(N)=O)c1ccccc1 [felbamate] | 0.23
34 | O=C(NCCO[N+](=O)[O-])c1cccnc1 [nicorandil] | 0.25
35 | CC(NCCc1ccc(O)cc1)C(O)c1ccc(O)cc1 (stereo not drawn) [Ritodrine] | 0.33
36 | O=C(CCCN1CC=C(n2c(=O)[nH]c3ccccc32)CC1)c1ccc(F)cc1 [droperidol] | 0.95
37 | CCCC(N)C(=O)NC1C(=O)N2C1SC(C)(C)C2C(=O)O (stereo not drawn) [penicillin12] | 0.33
38 | CC1(C)SC2C(NC(=O)C(N)c3cccc(O)c3)C(=O)N2C1C(=O)O (stereo not drawn) [penicillin32] | 0.17
39 | Cc1ccc(S(=O)(=O)NC(=O)N[C@H]2[C@H]3CC[C@@](C)([C@H]2O)C3(C)C)cc1 [glibornuride] | 0.95
40 | CC1(C)SC2C(NC(=O)COc3cccc(F)c3)C(=O)N2C1C(=O)O (stereo not drawn) [penicillin53] | 0.83
41 | CC[C@]1(O)C[C@H]2CN(CCc3c([nH]c4ccccc34)[C@@](C(=O)OC)(c3cc4c(cc3OC)N(C=O)[C@H]3[C@@](O)(C(=O)OC)[C@H](OC(C)=O)[C@]5(CC)C=CCN6CC[C@]43[C@@H]65)C2)C1 [Vincristine] | 0.6
42 | O=C(C1CCCCC1)N1CC(=O)N2CCc3ccccc3C2C1 (stereo not drawn) [praziquantel] | 0.83
43 | O=P(O)(O)C(Sc1ccc(Cl)cc1)P(=O)(O)O [tiludronic acid] | 0.9
44 | O=c1[nH]c2ccccc2n1CCCN1CCN(C(c2ccccc2)c2ccccc2)CC1 [oxatomide] | 0.91
45 | CCCC(CCC)C(=O)O [Valproic Acd] | 0.9
46 | C=CC[C@@H]1/C=C(\C)C[C@H](C)C[C@H](OC)[C@H]2O[C@@](O)(C(=O)C(=O)N3CCCC[C@H]3C(=O)O[C@H](/C(C)=C/[C@@H]3CC[C@@H](O)[C@H](OC)C3)[C@H](C)[C@@H](O)CC1=O)[C@H](C)C[C@@H]2OC [Tacrolimus] | 0.99
47 | Cc1nc(C)c(C)nc1C [tetramethylpyrazine phosphate] | 0.56
48 | COC(C(=O)NC1C(=O)N2C1SC(C)(C)C2C(=O)O)c1c(Cl)cccc1Cl (stereo not drawn) [penicillin41] | 0.84
49 | CCCc1nc(C)c2c(=O)[nH]c(-c3cc(S(=O)(=O)N4CCN(CC)CC4)ccc3OCC)nn12 [Vardenafil] | 0.95
50 | N[C@@H](Cc1cc(I)c(Oc2ccc(O)c(I)c2)c(I)c1)C(=O)O [liothyronine] | 0.98
51 | CCN(CC)CCOC(=O)C(Cc1cccc2ccccc12)CC1CCCO1 (stereo not drawn) [nafronyl] | 0.9
52 | CC(Oc1cccc2ccccc12)C(=O)NC1C(=O)N2C1SC(C)(C)C2C(=O)O (stereo not drawn) [penicillin70] | 0.97
53 | CC(C)(C)c1ccc(C(O)CCCN2CCC(C(O)(c3ccccc3)c3ccccc3)CC2)cc1 (stereo not drawn) [terfenadine] | 0.84
54 | C#C[C@]1(O)CC[C@H]2[C@@H]3[C@H](C)CC4=C(CCC(=O)C4)[C@H]3CC[C@@]21C [tibolone] | 0.96
55 | CO[C@]1(CC[C@@H](C)CO[C@@H]2O[C@H](CO)[C@@H](O)[C@H](O)[C@H]2O)O[C@H]2C[C@H]3[C@@H]4CC=C5C[C@@H](O[C@@H]6O[C@H](CO)[C@@H](O[C@@H]7O[C@@H](C)[C@H](O)[C@@H](O)[C@H]7O)[C@H](O)[C@H]6O[C@@H]6O[C@@H](C)[C@H](O)[C@@H](O)[C@H]6O)CC[C@]5(C)[C@H]4CC[C@]3(C)[C@H]2[C@@H]1C [methyl protodioscin] | 0.84
56 | COc1cc(NS(=O)(=O)c2ccc(N)cc2)nc(OC)n1 [sulfadimethoxine] | 0.95
57 | Nc1nc(N)c2nc(-c3ccccc3)c(N)nc2n1 [Triamterene] | 0.59

same assay, conditions: human, plasma; cited from earlier work

Row | Compound | PPB (fb)
58 | CC(C)C[C@H](NC(=O)[C@@H](COC(C)(C)C)NC(=O)[C@H](Cc1ccc(O)cc1)NC(=O)[C@H](CO)NC(=O)[C@H](Cc1c[nH]c2ccccc12)NC(=O)[C@H](Cc1cnc[nH]1)NC(=O)[C@@H]1CCC(=O)N1)C(=O)N[C@@H](CCCNC(=N)N)C(=O)N1CCC[C@H]1C(=O)NNC(N)=O [goserelin] | 0.2

same assay, conditions: plasma; cited from earlier work

Row | Compound | PPB (fb)
59 | Cc1ccccc1-n1c(C)nc2ccccc2c1=O [methaqualone] | 0.85
60 | CCC[S+]([O-])c1ccc2[nH]c(NC(=O)OC)nc2c1 (stereo not drawn) [albendazole sulfoxide] | 0.7
61 | CNC(C)Cc1ccc2c(c1)OCO2 (stereo not drawn) [methylenedioxymethamphetamine] | 0.65
62 | O=C(C[S+]([O-])C(c1ccccc1)c1ccccc1)NO (stereo not drawn) [adrafinil] | 0.8
63 | CC/C=C\C/C=C\C/C=C\C/C=C\C/C=C\C/C=C/CCC(=O)O[C@@H](C(=O)O[C@H]1C[C@@]2(O)[C@@H](OC(=O)c3ccccc3)C3[C@](C)(C(=O)[C@H](OC(C)=O)C(=C1C)C2(C)C)[C@@H](O)C[C@H]1OC[C@@]31OC(C)=O)[C@@H](NC(=O)c1ccccc1)c1ccccc1 (stereo partly drawn) [DHA Paclitaxel] | 0.9962
64 | O=P1(NCCCl)OCCCN1CCCl (stereo not drawn) [Ifosfamide] | 0
65 | CO [methanol] | 0
66 | nitazoxanide | 0.99
67 | CN1C[C@H](C(=O)N[C@]2(C)O[C@@]3(O)[C@@H]4CCCN4C(=O)[C@H](Cc4ccccc4)N3C2=O)C=C2c3cccc4[nH]cc(c34)C[C@H]21 [Ergotamine] | 0.96
68 | CN1C(=O)CN=C(C2=CCCCC2)c2cc(Cl)ccc21 [tetrazepam] | 0.7
69 | CCC1(O)CN2CCC1CC2C(O)c1ccnc2ccc(OC)cc12 (stereo not drawn) [Hydroxydihydroquinidine] | 0.53
70 | CCN[C@@H](C)Cc1cccc(C(F)(F)F)c1 [Dexfenfluramine] | 0.34
71 | Cc1nnc2n1-c1ccc(Cl)cc1C(c1ccccc1Cl)=NC2 [Triazolam] | 0.89
72 | CCCC(C)(COC(N)=O)COC(N)=O [Meprobamate] | 0.1
73 | CNC1(c2ccccc2Cl)CCCCC1=O (stereo not drawn) [Ketamine] | 0.44
74 | Cefodizime | 0.81
75 | CC(=O)[C@H]1CC[C@H]2[C@@H]3C=CC4=CC(=O)CC[C@@]4(C)[C@@H]3CC[C@]12C [dydrogesterone] | 0.97
76 | Doxycycline | 0.89
77 | C#CCN(C)[C@H](C)Cc1ccccc1 [Selegiline] | 0.9
78 | ceftibuten | 0.65
